“Also recorded” adds a separate entry of the source. No end group written: not given here.
How the values were obtained:
[1] = system: endothelial cells and smooth muscle cells of rat cerebral arteries; experiment: Uptake of fluorescent peptides by pressure-mounted rat cerebral arteries; format: cell-based
Protocol: Tat-P16 peptides were prepared and labeled with fluorescein for use in uptake studies using intact blood vessels isolated from rat brain. Blood vessels were dissected from rat brain and stabilized in an isolated perfusion system in which vessels were attached on either end to catheters and placed under physiological pressure. Following a 10 minute perfusion of the isolated vessels with flurorescent Tat-P16 peptide (1 μM), vessels were examined for uptake of the peptides. […] Within the endothelial cells, the labeled peptides were seen to be localized to the cell nuclei, further confirming uptake of the peptides by the cells.
The peptides are fairly labile in the media and approximately 50% are degraded upon incubation at 37° C. in complete media (qualitative analysis by PAGE) after 1 hour. […] Uptake of these peptides and cell killing activity was tested in a 3 dimensional organ culture using rat cerebral arteries cultured under physiological pressure and flow. A segment of the rat cerebral artery is surgically removed and placed in ringer's solution. Using a surgical stereoscope, the blood vessel is tied at either end to two cannulas on a teflon stage. Ringer's solution is perfused through the lumen of the vessel at a constant rate that maintains physiologic hydrostatic pressure. The fluorescent peptide was introduced intraluminally by perfusing a 1 μM solution of peptide through the lumen over a 10 minute period.
Rats were anesthetized by intraperitoneal injection of pentobarbital sodium (160 mg/kg) and killed by decapitation. The brain was removed and placed in an ice-cold oxygenated physiological cerebrospinal fluid (PCSF, see below for composition). Cerebellar arteries were isolated and mounted in an arteriograph as described previously (Knot and Nelson 1998). The arteriograph was placed on an inverted microscope and the artery was visualized with a monochrome CCD camera coupled to a calibrated video caliper system to measure arterial diameter. The arteries were slowly pressurized to 70 mmHg under no flow conditions using a pressure servo-null system (Living Systems Inc., Burlington Vt.), and warmed to 37° C. while being continuously superfused (5 ml/min) with PCSF bubbled with 21% O2, 5% CO2, 74% N2 (pH 7.35-7.40 in the bath). […] Myogenic tone is calculated by the following equation: Myogenic tone=(Dp−Da)/Dp×100
(§1) In some experiments, the arterial segments were denuded of endothelium by passing an air bubble through the lumen, thus exposing the smooth muscle cells to luminally administered peptides. Constriction to pressure and 60 mM KCl and dilation of arteries with myogenic tone to 16 mM KCl were used as benchmarks of functional arteries. Peptide containing PCSF was perfused intraluminally at an inlet pressure of 70 mmHg with the outlet open, for 20 min and then perfused with normal PCSF. This procedure ensures a 20 min of exposure of the arteries to the peptide.

rat cerebral arteries [2] = experiment: Vasodilation and vasoconstriction response of rat cerebral arteries before and after peptide; format: cell-based; details: after vs before intraluminal peptide
Protocol: The blood vessels were put in culture described above and perfused with buffer of the same composition as cerebrospinal fluid. Vessel diameter was measured before and after administration of each reagent. 3 μM of each peptide was perfused through for 10 minutes followed by a 10 minute wash through. Vasoconstriction and vasodilation were determined for each vessel before peptide was applied. Perfusion was continued until the vessels relaxed to their original diamter (approximately 30 minutes). The vasoconstriction and vasodilation reponse was remeasured after the 10 minute wash through. The 60 mM KCl and 16 mM KCl conditions are […], respectively. Histamine and Bradykinin are endothelial cell vasodilators.
as §1
(§2) Effect of peptide on endothelial and smooth muscle function was evaluated by histamine (0.3 and 1 μM) and bradykinin (0.5 μM) (endothelium-dependent vasodilators) and 16 and 60 mM KCl (results in dilation and constriction of arteries by hyperpolarizing and depolarizing smooth muscle, respectively). These drug solutions were added to the superfusate and applied to the arteries extraluminally for 10 to 15 min before and after intraluminal perfusion with peptides. Effects of these agents were expressed as percent change in myogenic tone (decrease for dilators and increase for constrictors). Experiments were concluded by exposing the arteries to calcium free PCSF to obtain the passive diameter. Cell viability was determined by adding H3334 (Hoechst viability stain, final concentration 1 μM) and propidium iodide (final concentration 1 μM) to the arteriograph after the peptide incubation. Fluorescent micrographs were taken of the vessels after incubation with peptides and following addition of the vital stains using Till Photonics imaging system (Martinsried, Germany).

rat cerebral arteries [3] = experiment: Cell viability staining of arteries (propidium iodide, H3334) after peptide; format: cell-based; details: after treatment with peptide
Protocol: No PI statined smooth muscle cell nuclei were observed.
as §2

[4] = system: HUVEC attachment to vitronectin coated plates; details: read-out: IC50 for inhibiting HUVEC attachment to vitronectin coated plates; cited from earlier work
Flk-1 = Flk-1 (Homo sapiens, UniProt P35968); details: cited from earlier work
Flk-1, sequence (P35968 20-1356, species assumed): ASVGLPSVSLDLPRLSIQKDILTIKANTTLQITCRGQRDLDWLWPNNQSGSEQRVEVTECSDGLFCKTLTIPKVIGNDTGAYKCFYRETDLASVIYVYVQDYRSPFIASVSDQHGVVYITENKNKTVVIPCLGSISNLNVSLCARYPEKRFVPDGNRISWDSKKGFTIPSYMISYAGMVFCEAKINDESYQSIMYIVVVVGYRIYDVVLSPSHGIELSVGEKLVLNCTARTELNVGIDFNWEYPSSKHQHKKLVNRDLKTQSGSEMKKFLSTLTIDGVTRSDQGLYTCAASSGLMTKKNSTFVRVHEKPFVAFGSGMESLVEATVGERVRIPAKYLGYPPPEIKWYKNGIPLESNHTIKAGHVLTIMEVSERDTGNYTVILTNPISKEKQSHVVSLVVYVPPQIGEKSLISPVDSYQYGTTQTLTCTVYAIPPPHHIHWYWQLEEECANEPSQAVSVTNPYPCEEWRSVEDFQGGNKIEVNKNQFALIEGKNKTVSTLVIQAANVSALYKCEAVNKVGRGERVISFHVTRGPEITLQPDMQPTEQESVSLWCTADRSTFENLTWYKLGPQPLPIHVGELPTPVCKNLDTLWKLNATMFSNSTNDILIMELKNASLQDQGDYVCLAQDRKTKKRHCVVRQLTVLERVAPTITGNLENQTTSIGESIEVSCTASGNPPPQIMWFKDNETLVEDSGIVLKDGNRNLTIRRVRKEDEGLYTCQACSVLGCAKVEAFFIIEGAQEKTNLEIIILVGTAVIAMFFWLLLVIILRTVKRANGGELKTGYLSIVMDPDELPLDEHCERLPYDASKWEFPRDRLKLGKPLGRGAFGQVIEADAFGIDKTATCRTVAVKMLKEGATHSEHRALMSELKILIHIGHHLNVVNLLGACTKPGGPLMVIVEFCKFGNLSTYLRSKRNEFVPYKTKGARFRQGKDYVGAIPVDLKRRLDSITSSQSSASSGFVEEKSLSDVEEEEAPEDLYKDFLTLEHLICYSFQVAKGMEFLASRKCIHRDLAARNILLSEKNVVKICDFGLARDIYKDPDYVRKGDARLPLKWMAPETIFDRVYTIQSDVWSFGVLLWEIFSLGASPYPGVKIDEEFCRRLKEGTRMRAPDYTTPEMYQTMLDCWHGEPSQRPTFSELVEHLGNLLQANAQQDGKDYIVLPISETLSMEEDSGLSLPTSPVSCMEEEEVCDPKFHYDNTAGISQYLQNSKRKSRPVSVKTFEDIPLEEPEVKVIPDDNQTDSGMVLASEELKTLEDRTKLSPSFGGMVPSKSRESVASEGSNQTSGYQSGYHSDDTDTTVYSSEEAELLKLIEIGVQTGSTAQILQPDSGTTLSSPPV

T98G cells = experiment: Fusion peptide cell killing, propidium iodide/FACS viability, T98G cells; format: cell-based, human; details: 10 μM peptide, 1 hr
Protocol: (§3) Other experiments were performed using two glioma cell lines, i.e., T98G and RG2. 1×10^6 cells per well were incubated in 6-well plates with peptides in complete media for 1 hr. Cells were removed from the plate using a cell stripper and the percentage of viable cells was determined by staining with propidium iodide and analyzing by fluorescence activated cell sorting (FACS).
(§4) Cell viability studies were performed by plating the cells under the same conditions as the uptake studies. Cells were incubated with fluorescent peptides for 1 hr at 37° C. The cells were removed from the plate using cell striper. They were labeled with propidium iodide and fluorescein-AM. Percent PI positive cells were determined by FACS.

RG2 cells [5] = experiment: Fusion peptide cell killing, propidium iodide/FACS viability, RG2 cells; format: cell-based, rat
Protocol: as §3
There are 4 conserved amino acid differences between the rat and human CDKI sequence. Both sequences were attached to Tat and tested for cell killing activity in the rat glioma RG2 cells. Also the effect of orientation of the Tat and CDKI domains were tested. RG2 cells were plated on 6 well plates at approximately 70% confluency. Each of the peptides was added to the wells with increasing concentration. After 1 hr, cells were removed from the plates, washed 2× with PBS, stained with propidium iodide and analyzed by FACS for viable cells.
as §4
The cytotoxicity of the chimeric peptides was characterized using a cell viability assay. Peptides were added to cells at a fixed concentration. After a 30-minute incubation, cells were removed from the plate, stained with propidium iodide and the % positive cells were determined by FACS (fluorescent activated cell scanning). The test conditions were Tat, ANT, Tat-P14ARF, ANT-P14ARF and P14ARF. T98G cells were tested along with RG2 cells and A172 cells.

A172 cells = experiment: Fluorescein peptide uptake by A172 cells, fluorescence microscopy; format: cell-based, human
Protocol: (§5) For fluorescent microscopy studies cells were plated on 2 chamber cover slips at a density of 1×10^4 cells/chamber. Cells were incubated with […] peptide for 30 minutes in completed media, washed with PBS 3× and imaged using a Nikon Axiophot inverted fluorescent microscope. Images were taken using a Spot CCD camera.
Synthetic peptides derived from HIV Tat (Tat) and the Drosophila antennaepedia homeodomain (ANT) were tested for cell uptake by A172 cells (human glioblastomas). The peptides were labeled at the N-terminus with fluorescein. Cells were incubated with 30 uM peptide at 37° C. in serum containing media. Fluorescent micrographs were taken after 1 hr incubation at 37° C. […] The size of the peptide was increased by added an Mdm-2 binding domain derived from P14ARF. This domain was added to the C-terminus of the Tat and ANT peptides. The P14ARF domain was also placed at the N-terminus followed by the Tat peptide. All the peptides were labeled at the N-terminus with fluorescein and cell incubations similar to the Tat and ANT peptides were tested for cellular uptake. […] Both the bright field and fluorescent micrographs show altered cell morphology.

RG2 cells [6] = experiment: Fluorescein peptide uptake by RG2 cells, fluorescence microscopy; format: cell-based, rat
Protocol: as §5
Similar observations were obtained for all the peptides in another human glioblastoma cell line, T98G.

[7] = system: T98G cells, RG2 cells and A172 cells; experiment: Cell viability assay of chimeric peptides in three cell types; format: cell-based, human and rat; details: fixed concentration, 30-minute incubation
Protocol: Synthetic peptides labeled with an N-terminal fluorescein were synthesized to test the ability of a shuttle domain to enter brain tumor and endothelial cells. The amino acid sequences for the shuttle domain was derived from HIV Tat amino acid 47 to 56 ([…] SEQ ID NO:23)(Robert-Guroff et al., J. Virol. 64:3391-3398, 1990) to which AGGG was added to the N-terminus, and the antennapedia homeodomain from drosophila (ANT) ([…] SEQ ID NO:24) (Astriab-Fisher et al., Pharm. Res., 19:744-754, 2002). A synthetic peptide (PTD-5) reported to have similar properties as Tat and ANT was also tested (Mai J. C. et al, Cancer Res. 2001; 61: 7709-7712.). Uptake was tested in two human glioblastoma cell lines and a rat glioma cell line, the latter being used for the rat brain tumor model. A 1 μM concentration of each peptide was added to 10^6 cells in a 6 well plate. […] The Tat and ANT peptides were doubled in length by the addition of […] (SEQ ID NO: 25), amino acids 42 to 55 from a human cyclin-dependent kinase inhibitor 2A (melanoma, p16, inhibits CDK4) (CDKI), transcript variant 4, mRNA (accession no. NM_058195). […]
The cytotoxicity of the chimeric peptides was characterized using a cell viability assay. […] After a 30-minute incubation, cells were removed from the plate, stained with propidium iodide and the % positive cells were determined by FACS (fluorescent activated cell scanning). […]

[8] = system: two human glioblastoma cell lines and a rat glioma cell line; experiment: Fluorescein peptide uptake, fluorescence microscopy, three glioma lines; format: cell-based; details: 1 μM peptide, 10^6 cells, all three cell types
Protocol: Synthetic peptides labeled with an N-terminal fluorescein were synthesized to test the ability of a shuttle domain to enter brain tumor and endothelial cells. The amino acid sequences for the shuttle domain was derived from HIV Tat amino acid 47 to 56 ([…] SEQ ID NO:23)(Robert-Guroff et al., J. Virol. 64:3391-3398, 1990) to which AGGG was added to the N-terminus, and the antennapedia homeodomain from drosophila (ANT) ([…] SEQ ID NO:24) (Astriab-Fisher et al., Pharm. Res., 19:744-754, 2002). A synthetic peptide (PTD-5) reported to have similar properties as Tat and ANT was also tested (Mai J. C. et al, Cancer Res. 2001; 61: 7709-7712.). Uptake was tested in two human glioblastoma cell lines and a rat glioma cell line, the latter being used for the rat brain tumor model. A 1 μM concentration of each peptide was added to 10^6 cells in a 6 well plate. […] The Tat and ANT peptides were doubled in length by the addition of […] (SEQ ID NO: 25), amino acids 42 to 55 from a human cyclin-dependent kinase inhibitor 2A (melanoma, p16, inhibits CDK4) (CDKI), transcript variant 4, mRNA (accession no. NM_058195). This domain binds MDM2 and inhibit ubiquination of P53, a tumor suppressor protein. […] Only the combination of Tat-CDKI was toxic to the cells, 65% killing for T98G and 61% killing for RG2 cells. […] Similar results were obtained with A172 cells. […]

[9] = system: endothelial cells and smooth muscle cells of rat cerebral arteries; experiment: Uptake of fluorescent peptides by pressure-mounted rat cerebral arteries; format: cell-based; details: extraluminal addition
HIV = details: cited from earlier work
[10] = intraluminal perfusion of fluorescent peptide

AGGGYGRKKRRQRRRMGRRFVVTVRIRRT [Tat-rat P14ARF]
morphology of the endothelial cells ([1]; after intraluminal exposure): morphology of the endothelial cells was altered
labeling/uptake by endothelial cells [1, 10]: restriction of labeling to the endothelial cells
endothelium-dependent dilation to histamine and bradykinin (rat cerebral arteries [2]): inhibition of vasodilation
smooth muscle response to 60 and 16 mM KCl (rat cerebral arteries [2]): no effect
propidium iodide staining of blood vessels (rat cerebral arteries [3]): only the endothelial cells were affected

CDMRGDMFC [αvβ3 integrin binding peptide]
IC50 [4]: 10 µM

HTMYYHHYQHHL [Flk-1 binding peptide]
IC50 (Flk-1): ~100 µM

MVRRFLVTLRIRRA [P14ARF]
% killing (toxicity) (T98G cells): no toxicity
% killing (toxicity) (RG2 cells [5]; 10 μM peptide, 1 hr): 22%
reduction in cell viability (RG2 cells [5]; 30-minute incubation): 22%
endothelium-dependent dilation to histamine and bradykinin (rat cerebral arteries [2]): responsive to all stimuli
smooth muscle response to 60 and 16 mM KCl (rat cerebral arteries [2]): responsive to all stimuli

MVRRFLVTLRIRRAAGGGYGRKKRRQRRR [P14ARF-Tat]
IC50 (RG2 cells [5]; dose response 1 μM to 10 μM): 3 µM
staining pattern (cell uptake) (A172 cells; 30 uM peptide, 1 hr, 37° C., serum containing media): nuclear staining
cell density (A172 cells; A172 cells, 1-hour incubation): reduced cell density
cell density (RG2 cells [6]): reduced cell density compared to TatP14ARF
staining pattern (cell uptake) (RG2 cells [6]): nuclear staining

RQIKIWFQNRRMKWKK [ANT, membrane permeability domain alone, control peptide]
cells killed [7]: No impact on cell viability
fluorescence labeling of cells (uptake) [8]: stained the cytoplasm
fluorescent intensity (degree of cell uptake) (A172 cells; 30 uM peptide, 1 hr, 37° C.): greater for the ANT peptide than the Tat peptide
labeling/uptake by endothelial cells [1, 10]: restriction of labeling to the endothelial cells; also recorded: cytoplasmic staining of the endothelial cells
labeling/uptake by smooth muscle cells [1, 10]: did not label the smooth muscle cells
labeling of smooth muscle cells [9]: able to label the smooth muscle cells

RQIKIWFQNRRMKWKK-MVRRFLVTLRIRRA [ANT-P14ARF]
staining pattern (cell uptake) (RG2 cells [6]): intracellular punctate staining

RRNalCYCitKdEPYRCitCR [CXCR4 peptide]
IC50 for inhibiting HIV (HIV): in the nM range
